Source: ChEMBL document CHEMBL3885861, “Open TG-GATES”

Organism: Rattus norvegicus
Experiment: Open TG-GATES - Regimen: Single
Assay type: toxicity, organism-based, Sprague-Dawley
Design: regimen Single, gender Male, age 6 weeks
Settings: in vivo, ip, 120 mg/kg, route intraperitoneal injection, dose level Middle; for APTT / Bas / Eos / Fbg / Hb / Ht / Lym / MCH / MCHC / MCV / Mono / Neu / PT / Plat / RBC / Ret / WBC: tissue Blood; for KIDNEY_L / KIDNEY_R / KIDNEY_TOTAL: tissue Kidney; for LIVER: tissue Liver; for A/G / ALP / ALT / AST / BUN / CRE / Ca / Cl / DBIL / GLC / IP / K / LDH / Na / PL / RALB / TBIL / TC / TG / TP / gamma-GTP: tissue Plasma

In the case of `CC(C)=CC(=O)C=C(C)C` [PHORONE], the TERMINAL_BW (3 h) is reported as 223.2 g, the APTT (3 h) is reported as 16.6 s and the Bas (3 h) is reported as 0%. It also gave an Eos (3 h) of 0.8%, a Fbg (3 h) of 219.8 mg/dL and a Hb (3 h) of 13.8 g/dL. The Ht (3 h) was 41%, the Lym (3 h) was 74.4% and the MCH (3 h) was 21.7 pg. It also gave an MCHC (3 h) of 33.5%, an MCV (3 h) of 64.6 fL and a Mono (3 h) of 8.4%. The Neu (3 h) was 16.2%, the PT (3 h) was 12.2 s and the Plat (3 h) was 124.2 x10_4/uL. It also gave an RBC (3 h) of 635.4 x10_4/ul, a Ret (3 h) of 8.8% and a WBC (3 h) of 65.2 x10_2/uL. For the same molecule, the KIDNEY_L (3 h) was 1 g, the KIDNEY_R (3 h) was 1 g and the KIDNEY_TOTAL (3 h) was 2 g. The LIVER (3 h) was 10.2 g, the A/G (3 h) was 2.2 and the ALP (3 h) was 897.8 IU/L. The ALT (3 h) was 34.6 IU/L, the AST (3 h) was 76.2 IU/L and the BUN (3 h) was 15.2 mg/dL. For the same molecule, the CRE (3 h) was 0.6 mg/dL, the Ca (3 h) was 11.2 mg/dL and the Cl (3 h) was 103 meq/L. For the same molecule, the DBIL (3 h) was 0.038 mg/dL, the GLC (3 h) was 213.4 mg/dL and the IP (3 h) was 10.1 mg/dL. For the same molecule, the K (3 h) was 5.1 meq/L, the LDH (3 h) was 79.8 IU/L and the Na (3 h) was 137.2 meq/L. For the same molecule, the PL (3 h) was 132.6 mg/dL, the RALB (3 h) was 3.6 g/dL and the TBIL (3 h) was 0.6 mg/dL. For the same molecule, the TC (3 h) was 79 mg/dL, the TG (3 h) was 50.8 mg/dL and the TP (3 h) was 5.3 g/dL. The gamma-GTP (3 h) was 1.2 IU/L, the TERMINAL_BW (6 h) was 221.7 g and the APTT (6 h) was 17.1 s. The Bas (6 h) was 0%, the Eos (6 h) was 1% and the Fbg (6 h) was 220.6 mg/dL. The Hb (6 h) was 13.7 g/dL, the Ht (6 h) was 41.3% and the Lym (6 h) was 75.6%. The MCH (6 h) was 21.7 pg, the MCHC (6 h) was 33.1% and the MCV (6 h) was 65.4 fL. For the same molecule, the Mono (6 h) was 4.4%, the Neu (6 h) was 19.2% and the PT (6 h) was 12.2 s. For the same molecule, the Plat (6 h) was 114 x10_4/uL, the RBC (6 h) was 633.2 x10_4/ul and the Ret (6 h) was 8.5%. It also gave a WBC (6 h) of 102.3 x10_2/uL, a KIDNEY_L (6 h) of 1 g and a KIDNEY_R (6 h) of 1 g. It also gave a KIDNEY_TOTAL (6 h) of 2 g, an LIVER (6 h) of 9.9 g and an A/G (6 h) of 1.9. The ALP (6 h) was 687.6 IU/L, the ALT (6 h) was 34.4 IU/L and the AST (6 h) was 71 IU/L. It also gave a BUN (6 h) of 15 mg/dL, a CRE (6 h) of 0.4 mg/dL and a Ca (6 h) of 10.7 mg/dL. It also gave a Cl (6 h) of 104.2 meq/L, a DBIL (6 h) of 0.032 mg/dL and a GLC (6 h) of 194.4 mg/dL. It also gave an IP (6 h) of 9.5 mg/dL, a K (6 h) of 4.7 meq/L and an LDH (6 h) of 81.6 IU/L. It also gave a Na (6 h) of 138 meq/L, a PL (6 h) of 130.6 mg/dL and an RALB (6 h) of 3.6 g/dL. For the same molecule, the TBIL (6 h) was 0.5 mg/dL, the TC (6 h) was 80 mg/dL and the TG (6 h) was 29 mg/dL. For the same molecule, the TP (6 h) was 5.5 g/dL, the gamma-GTP (6 h) was 2 IU/L and the TERMINAL_BW (9 h) was 216.1 g. It also gave an APTT (9 h) of 16.6 s, a Bas (9 h) of 0% and an Eos (9 h) of 0.8%. It also gave a Fbg (9 h) of 229.2 mg/dL, a Hb (9 h) of 13.4 g/dL and a Ht (9 h) of 40.4%. For the same molecule, the Lym (9 h) was 72.6%, the MCH (9 h) was 21.7 pg and the MCHC (9 h) was 33.1%. The MCV (9 h) was 65.5 fL, the Mono (9 h) was 6.6% and the Neu (9 h) was 20%. For the same molecule, the PT (9 h) was 12.1 s, the Plat (9 h) was 113.6 x10_4/uL and the RBC (9 h) was 617.2 x10_4/ul. For the same molecule, the Ret (9 h) was 8.9%, the WBC (9 h) was 90 x10_2/uL and the KIDNEY_L (9 h) was 1 g. For the same molecule, the KIDNEY_R (9 h) was 1 g, the KIDNEY_TOTAL (9 h) was 2 g and the LIVER (9 h) was 8.9 g. It also gave an A/G (9 h) of 2.2, an ALP (9 h) of 717.4 IU/L and an ALT (9 h) of 31 IU/L. The AST (9 h) was 66.8 IU/L, the BUN (9 h) was 11.2 mg/dL and the CRE (9 h) was 0.5 mg/dL. It also gave a Ca (9 h) of 10.7 mg/dL, a Cl (9 h) of 106.2 meq/L and a DBIL (9 h) of 0.058 mg/dL. It also gave a GLC (9 h) of 202.6 mg/dL, an IP (9 h) of 10 mg/dL and a K (9 h) of 4.7 meq/L. The LDH (9 h) was 89.8 IU/L, the Na (9 h) was 138.4 meq/L and the PL (9 h) was 128 mg/dL. For the same molecule, the RALB (9 h) was 3.7 g/dL, the TBIL (9 h) was 0.4 mg/dL and the TC (9 h) was 74.2 mg/dL. It also gave a TG (9 h) of 43.8 mg/dL, a TP (9 h) of 5.4 g/dL and a gamma-GTP (9 h) of 1.6 IU/L. For the same molecule, the TERMINAL_BW (24 h) was 229.2 g, the APTT (24 h) was 16.9 s and the Bas (24 h) was 0%. It also gave an Eos (24 h) of 0.8%, a Fbg (24 h) of 244 mg/dL and a Hb (24 h) of 12.9 g/dL. For the same molecule, the Ht (24 h) was 39.2%, the Lym (24 h) was 75.4% and the MCH (24 h) was 21.3 pg. It also gave an MCHC (24 h) of 32.9%, an MCV (24 h) of 64.7 fL and a Mono (24 h) of 6.8%. The Neu (24 h) was 17.2%, the PT (24 h) was 11.7 s and the Plat (24 h) was 121.5 x10_4/uL. For the same molecule, the RBC (24 h) was 606.2 x10_4/ul, the Ret (24 h) was 8.1% and the WBC (24 h) was 94.9 x10_2/uL. It also gave a KIDNEY_L (24 h) of 1.1 g, a KIDNEY_R (24 h) of 1.1 g and a KIDNEY_TOTAL (24 h) of 2.2 g. It also gave an LIVER (24 h) of 11.9 g, an A/G (24 h) of 2.1 and an ALP (24 h) of 860.6 IU/L. For the same molecule, the ALT (24 h) was 34.4 IU/L, the AST (24 h) was 58.2 IU/L and the BUN (24 h) was 15.8 mg/dL. It also gave a CRE (24 h) of 0.5 mg/dL, a Ca (24 h) of 10.9 mg/dL and a Cl (24 h) of 103.6 meq/L. The DBIL (24 h) was 0.03 mg/dL, the GLC (24 h) was 194.8 mg/dL and the IP (24 h) was 7.7 mg/dL. It also gave a K (24 h) of 4.6 meq/L, an LDH (24 h) of 176.4 IU/L and a Na (24 h) of 139.2 meq/L. It also gave a PL (24 h) of 148 mg/dL, an RALB (24 h) of 3.7 g/dL and a TBIL (24 h) of 0.4 mg/dL. The TC (24 h) was 77.2 mg/dL, the TG (24 h) was 106.2 mg/dL and the TP (24 h) was 5.6 g/dL. For the same molecule, the gamma-GTP (24 h) was 0.6 IU/L.
